Experimental findings from publication PMC10786919, “Design-rules for stapled peptides with in vivo activity and their application to Mdm2/X antagonists” (Nature Communications, 2024) are described below.

As a reminder, the logD is lipophilicity at a set pH, counting ionised and neutral species. High values mean higher lipophilicity, low ones lower lipophilicity.

Data set [1] deals with Jump-In T-REx CHO-K1 BLA cells. Put plainly: cells. In kind it is cell-based. The following applies: for EC50: read-out: TETCHO: Counterscreen EC50. (The purpose of a counterscreen is to sort out artefacts and off-target activity.)
Data set [2] is described as follows: Solubility assay (kinetic solubility, PBS pH 7). It counts as physicochemical. The following applies: read-out: Solubility. The essentials: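 Std: 10 mM stock → 100 µM in ACN/MeOH/DMSO (10:80:10). Sol. [µM] = (sample peak area / std peak area) × std conc.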
The test system of a further data set is HCT116 cells. Put plainly: Lactate dehydrogenase (LDH) release assay. In kind it is cell-based. The essentials:
(§1)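 Geometric means of at least three independent biological runs are given for LDH release measured in HCT116 cells stably expressing a p53-driven β-lactamase reporter. Plating density was 8000 cells/well; DMSO in wells was 0.5%.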

The nature of data set [3]: Lactate dehydrogenase (LDH) release assay. The following applies: LDH: Cytotoxicity assay: EC50. In kind it is cell-based. An outline of the steps: as §1
The test system of data set [4] is cells transiently transfected with the NanoLuc-HaloTag vector. Put plainly: Nanoclick permeability assay. The note with it: for Nanoclick permeability assay % Effect: 4Hr; for cell entry EC50: 4 h. The essentials: (§2)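 Azido-peptide permeability was read as loss of NanoBRET signal (donor 450 nm, acceptor 610 nm) after adding NanoBret618-azide at 10 μM final.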
The nature of the next data set: in vitro. The following applies: Nanoclick permeability assay EC50. An outline of the steps:
as §2

Data set [5] in a line: Experimental LogD (partition coefficient). The following applies: not stated, Partition Coeff LogD.
Data set [6] deals with p53 responsive β-lactamase reporter in HCT116 cells. Kind of data set: cells. In kind it is cell-based. The essentials: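 HCT116 cells stably carrying a p53-responsive β-lactamase reporter, seeded at 8000 cells/well, with 0.5% DMSO final. Reporter activity read by ToxBLAzer Dual Screen. Values are geometric means of at least three biological replicates.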
The test system of data set [7] is CellSensor p53RE-bla HCT-116 Cell Line. The essentials: (§3)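 Compound dilution series (10 points, 3-fold, 10 mM top stock in DMSO) tested on overnight-plated Ca Ski cells in RPMI1640/10% FBS and on blasticidin-selected p53RE-bla HCT-116 cells in McCoy's 5A; read-out was CellTiter-Glo 2.0 luminescence after room-temperature equilibration.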
The next data set deals with Ca Ski cell line. The essentials:
as §3

The nature of a further data set: EPSA. It counts as physicochemical.
Setting [8] is: pH 7, aqueous buffer, kinetic from dmso stock, pH 7, PBS.
Setting [9] is: 0% FBS 4Hr, read-out: p53 reporter assay: EC50.
The mark [10] stands for this setting: 10% FBS 4Hr, read-out: p53 reporter assay: EC50.
[11] abbreviates: 10% FBS 16Hr, read-out: p53 reporter assay: EC50.

Values after ≈ are worked out from the molar mass of the structure shown. Read-outs that look alike come from different tables or passages of the source. Positions of bridges follow the written chain, without caps; N, C: chain ends. Non-standard residues stand in square brackets, D forms with d. Residues, ends and D or L forms follow the SMILES beside them. Lys(N3) = [N-]=[N+]=NCCCC[C@H](N)C(=O)O; R8 = C=CCCCCCC[C@@](C)(N)C(=O)O; Cba = N[C@@H](CC1CCC1)C(=O)O; S5 = C=CCCC[C@](C)(N)C(=O)O; βAla = NCCC(=O)O

As for `CC(=O)N[C@@H](CCCCN=[N+]=[N-])C(=O)NCCC(=O)N[C@@H](CC(C)C)C(=O)N[C@H](C(=O)N[C@@H](CO)C(=O)N[C@]1(C)CCCCCCC=CCCC[C@@](C)(C(=O)N[C@@H](CO)C(=O)N[C@@H](C)C(=O)N[C@@H](C)C(N)=O)NC(=O)[C@H](CO)NC(=O)[C@H](CCC(N)=O)NC(=O)[C@H](C)NC(=O)[C@H](CO)NC(=O)[C@H](Cc2ccc(O)cc2)NC(=O)[C@H](CCC(=O)O)NC1=O)[C@@H](C)O` [MP-3352] (Ac-[Lys(N3)][βAla]LTS[R8]EYSAQS[S5]SAA-NH2; staple 6-13), in [1] (0% FBS 4Hr), the “TETCHO: Counterscreen % Effect” value came out at 0.41%. In addition, the EC50 in [1] (0% FBS 4Hr), in data set [3] and in [6] (setting [9]) was more than 50.6 µM each time. Further, in [2] (setting [8]), the solubility kinetic worked out at 28 µM (≈ 49.6 µg/mL). In addition, the “LDH: Cytotoxicity assay: % Effect” value in the data set on HCT116 cells is -2.39%. In data set [4], the “Nanoclick permeability assay % Effect” value worked out at 36.66%. In addition, the cell entry EC50 in “in vitro” was 8.79 µM. For the same molecule, the logD in [5] turned out to be 1.55. In “physchem”, this molecule displayed an EPSA of 197 A^2.

With `CC(=O)N[C@@H](CCCCN=[N+]=[N-])C(=O)NCCC(=O)N[C@@H](CC(C)C)C(=O)N[C@H](C(=O)N[C@@H](Cc1ccccc1)C(=O)N[C@]1(C)CCCCCCC=CCCC[C@@](C)(C(=O)N[C@@H](CCC(=O)O)C(=O)N[C@@H](C)C(=O)N[C@@H](C)C(=O)N[C@@H](C)C(=O)N[C@@H](C)C(=O)N[C@H](C)C(N)=O)NC(=O)[C@H](CC2CCC2)NC(=O)[C@H](CCC(N)=O)NC(=O)[C@H](C)NC(=O)[C@H](Cc2c[nH]c3ccccc23)NC(=O)[C@H](Cc2ccc(O)cc2)NC(=O)[C@H](CCC(=O)O)NC1=O)[C@@H](C)O` [MP-834, Ac-K(N3)-(betaAla)-LTF-(R8)-EYWAQ-(Cba)-(S5)-EAAAA-(D-Ala)-NH2] (Ac-[Lys(N3)][βAla]LTF[R8]EYWAQ[Cba][S5]EAAAA[dA]-NH2; staple 6-13), the “TETCHO: Counterscreen % Effect” value in data set [1] (0% FBS 4Hr) is reported as -4.911%; in data set [1] (0% FBS 16Hr), -7.249%; in [1] (10% FBS 16Hr) it was -13.19%. In addition, the solubility kinetic in [2] worked out at 167 µM (≈ 372 µg/mL). Further, the “LDH: Cytotoxicity assay % Effect” value in the data set on HCT116 cells (0% FBS 4Hr) is 6.58%; in the data set with HCT116 cells (10% FBS 16Hr) it was 9.756%. Further, in data set [4], the “Nanoclick permeability assay % Effect” value amounted to 121.4%. Further, the EC50 in data set [7] (read-out: Proliferation EC50 HCT116 (On-target), HCT116) is 1.4 µM; in the data set with Ca Ski cell line (read-out: Proliferation EC50 Ca Ski (Off-target), Ca Ski), more than 49.8 µM; in data set [6] (read-out: Cell EC50 (4 hr, 0% FBS), p53 reporter assay, 4 hr, 0% FBS), 1 µM; in [6] (read-out: Cell EC50 (16 hr, 10% FBS), p53 reporter assay, 16 hr, 10% FBS), 3.4 µM. Also, in the data set with Ca Ski cell line (Ca Ski, 50 µM), the “Proliferation % inhibition at 50 µM Ca Ski” value is -3.2%. The “p53 reporter assay % Effect” value in data set [6] (0% FBS 4Hr) was found to be 103.2%; in [6] (10% FBS 16Hr), 95.7%.

As for `CC(=O)N[C@@H](CCCCN=[N+]=[N-])C(=O)NCCC(=O)N[C@@H](CC(C)C)C(=O)N[C@H](C(=O)N[C@@H](Cc1ccccc1)C(=O)N[C@]1(C)CCCCCCC=CCCC[C@@](C)(C(=O)N2CCC[C@H]2C(=O)N2CCC[C@H]2C(=O)N2CCC[C@H]2C(=O)N2CCC[C@H]2C(=O)N2CCC[C@H]2C(=O)N2CCC[C@H]2C(N)=O)NC(=O)[C@H](CC2CCC2)NC(=O)[C@H](CCC(N)=O)NC(=O)[C@H](C)NC(=O)[C@H](Cc2c[nH]c3ccccc23)NC(=O)[C@H](Cc2ccc(O)cc2)NC(=O)[C@H](CCC(=O)O)NC1=O)[C@@H](C)O` [MP-094], the solubility kinetic in [2] (pH 7) was determined as 158 µM (≈ 367 µg/mL). Also, the cell entry EC50 in [4] came out at 0.942 µM. The EC50 in data set [7] (72 h) is 1.33 µM; in the data set on Ca Ski cell line (72 h), more than 49.8 µM.

As for `CC(=O)N[C@@H](CCCCN=[N+]=[N-])C(=O)NCCC(=O)N[C@@H](CC(C)C)C(=O)N[C@H](C(=O)N[C@@H](Cc1ccccc1)C(=O)N[C@]1(C)CCCCCCC=CCCC[C@@](C)(C(=O)N[C@@H](C)C(=O)N[C@@H](C)C(=O)N[C@@H](C)C(=O)N[C@@H](C)C(=O)N[C@@H](C)C(=O)N[C@@H](C)C(=O)N[C@@H](C)C(N)=O)NC(=O)[C@H](CC2CCC2)NC(=O)[C@H](CCC(N)=O)NC(=O)[C@H](C)NC(=O)[C@H](Cc2c[nH]c3ccccc23)NC(=O)[C@H](Cc2ccc(O)cc2)NC(=O)[C@H](CCC(=O)O)NC1=O)[C@@H](C)O` [MP-471], in [4], the cell entry EC50 was determined as 1.35 µM. Further, the EC50 in [7] (72 h) stood at 10.7 µM; in the data set with Ca Ski cell line (72 h), 26.7 µM.

Turning to `CC(=O)N[C@@H](CCCCN)C(=O)NCCCCCC(=O)N[C@H](C(=O)N[C@@H](CO)C(=O)N[C@@H](Cc1ccccc1)C(=O)N[C@]1(C)CCCCCCC=CCCC[C@@](C)(C(=O)N[C@@H](CCC(=O)O)C(=O)N[C@@H](CC(N)=O)C(=O)N[C@@H](Cc2ccccc2)C(N)=O)NC(=O)[C@H](CC(C)C)NC(=O)[C@H](CC(C)C)NC(=O)[C@H](C)NC(=O)[C@H](Cc2c[nH]c3ccccc23)NC(=O)[C@H](Cc2ccc(O)cc2)NC(=O)[C@H](CCC(=O)O)NC1=O)[C@@H](C)O` [MP-82094], the “TETCHO: Counterscreen % Effect” value worked out at 52.98% in data set [1] (0% FBS 4Hr), 49.08% in [1] (10% FBS 4Hr) and 82.5% in data set [1] (10% FBS 16Hr). Moreover, the EC50 is 45.8 µM in data set [1] (0% FBS 4Hr); 20 µM in data set [1] (10% FBS 4Hr); 7.15 µM in [1] (10% FBS 16Hr); 50.5 µM in the data set with HCT116 cells; 1.55 µM in [6] (setting [9]); 3.92 µM in data set [6] (setting [10]). In addition, the EC50 in data set [6] (setting [11]) worked out at 16.1 µM. In addition, the “Nanoclick permeability assay % Effect” value in [4] came to 69.87%. For the same molecule, the EPSA result in “EPSA” is “Poorly Behaved”. Further, the “p53 reporter assay: % Effect” value was found to be 109.5% in data set [6] (0% FBS 4Hr), 125.5% in data set [6] (10% FBS 4Hr) and 78.69% in data set [6] (10% FBS 16Hr).

Regarding `CC(=O)N[C@H](C(=O)N[C@@H](CO)C(=O)N[C@@H](Cc1ccccc1)C(=O)N[C@]1(C)CCCCCCC=CCCC[C@@](C)(C(N)=O)NC(=O)[C@H](CC(C)C)NC(=O)[C@H](CC(C)C)NC(=O)[C@H](C)NC(=O)[C@H](Cc2c[nH]c3ccccc23)NC(=O)[C@H](Cc2ccc(O)cc2)NC(=O)[C@H](CCC(=O)O)NC1=O)[C@@H](C)O` [MP-090], the entries for the “TETCHO: Counterscreen % Effect” value in [1] (0% FBS 4Hr), in data set [1] (10% FBS 4Hr) and in data set [1] (10% FBS 16Hr) were 137.4%, 106.1% and 108.5%, respectively. The EC50 was 21.2 µM in data set [1] (0% FBS 4Hr); 31.5 µM in data set [1] (10% FBS 4Hr); 32.9 µM in data set [1] (10% FBS 16Hr); 50.5 µM in the data set with HCT116 cells; more than 50.7 µM in data set [3]; 6.5 µM in [6] (setting [9]). For the same molecule, the EC50 in data set [6] (setting [10]) is 26.2 µM; in data set [6] (setting [11]) it was more than 50.4 µM. For the same molecule, the solubility kinetic in data set [2] (setting [8]) worked out at 77 µM (≈ 113 µg/mL). The “Nanoclick permeability assay % Effect” value in data set [4] was found to be 42.09%. Besides, in “in vitro”, the cell entry EC50 was more than 10 µM. The molecule also registered an EPSA in the data set “EPSA” (EPSA) of 201 A^2. In addition, the logD in data set [5] was found to be 2.69. Also, the “p53 reporter assay: % Effect” value came to 110.7% in data set [6] (0% FBS 4Hr), 88.51% in [6] (10% FBS 4Hr) and 4.432% in [6] (10% FBS 16Hr).
